Experimental data from patent US11571484B2, “Compositions that target tumor-associated macrophages and methods of use therefor” (Sanford Burnham Prebys Medical Discovery Institute, priority 2017, dated 2023).
“And” between values parts separate entries of the source, which are not always exact repeats. Equal values may be shown once. Ends that are not written are not given here. FAM = 5(6)-carboxyfluorescein; Ahx = NCCCCCC(=O)O

Tests used:
[1] = tested on: peritoneal cells (CCR2+ macrophages) of 4T1 tumor-bearing mice; test: Flow cytometry of FAM-peptide binding to peritoneal cells from 4T1 tumor mice; format: cell-based, mouse
Method: A, Change in fluorescence anisotropy of FAM-UNO (dotted line) and FAM-UNO in DTT (solid line) while incubating with mouse recombinant CD206. B, Change in fluorescence anisotropy of FAM-CSPGAK with mouse recombinant CD206 (solid line) or with CD163 (dotted line) and of FAM-CPMTDNE (control) with CD206 (dashed line). C, FAM-UNO binds selectively to CCR2^+ macrophages collected from the peritoneal cavity of 4T1 tumor-bearing mice, as 94.3% of FAM^+ cells are CCR2^+ cells. The analysis was done gating for the FAM^+ population (left panel). In these 4T1 tumor bearing mice, 58% of peritoneal cells are macrophages, i.e. CCR2^+ cells (right panel). D, FAM-UNO binding to peritoneal cells is inhibited by preincubating with 10 µg/mL of anti-CD206, whereas the preincubation with anti CD206 antibody had no effect on FAM-LyP-1 binding. In panels A and D are shown representative graphs from three independent experiments. In panels c and d are shown results from three independent experiments (n=3 mice) and bars of panel D represents mean+SEM.
Peritoneal cells were extracted from Balb/c mice 2 weeks after inoculation of 10^6 cells orthotopically). Mice were anesthetized and intraperitoneally injected with 5 mL of PBS+1% BSA, the abdomen was massaged to detach macrophages and the peritoneal fluid was collected. This procedure typically yielded 5-9×10^6 cells. Cells were concentrated to 1 mL in the same peritoneal fluid. For FAM-peptide incubation, the peptides were incubated for 30 minutes at 4° C. For antibody incubation the cells were incubated with antibody for 1 h at 4° C. A647 Rat anti-CCR2 (Biolegend, CA, USA. Catalog number 150603) was incubated for 1 h at 4° C. at a dilution of 1/200. FAM-peptides were incubated at a concentration of 0.5 μg/mL, and Rat anti-CD206 (Bio-Rad, CA, USA. Product code MCA2235GA) was incubated at a concentration of 10 μg/mL. Binding of FAM-peptides was monitored with 488 nm channel and CCR2 labeling was assessed in the 647 nm channel using A647 Anti-CCR2 (Biolegend, CA, USA). After incubation of FAM-Peptides or antibodies, the cells were washed 3 times at 4° C. with PBS-Tby centrifugation at 250 g for 6 minutes, followed by flow cytometry analysis (Accuri, BD Biosciences, CA, USA).

[2] = 4T1 tumor lysate, injected within 1 min
Method: High-performance liquid chromatography (Agilent 1200 series, USA)-mass spectrometry (SciexQ-Trap 4500, Canada) analysis was done using a C18 column (Kinetex 2.6 μm EVO C18 100×4.6 mm, Phenomenex, USA). Ionization was performed at 300° C. with declustering potential set 30 V. Chromatography gradient started with 2 min 5% acetonitrile in water, followed by linear increase to 95% acetonitrile in 10 min and finally 10 min isocratic flow of 95% acetonitrile in water. Both eluents, water and acetonitrile, contained 0.2% formic acid. Flow rate was 0.3 ml/min. Column temperature was maintained at 40° C. Autosampler temperature was set to 37° C. Retention times and m/z signals of FAM-UNO, were determined from 30 μM FAM-UNO solution in PBS. Tumor lysate was split into two aliquots of 200 μL in each. From one aliquot, 20 μL were injected and the LC-MS profile obtained. The second aliquot was mixed with 50 μL of 30 μM FAM-UNO in PBS and injected within 1 min to LC-MS and the LC-MS profile obtained.

Question: Which results are given for “FAM-UNO: FAM-labeled UNO peptide CSPGAKVRC (SEQ ID NO: 1); 5(6)-carboxyfluorescein with 6-aminohexanoic acid spacer at the N-terminus ({FAM-Ahx}-CSPGAKVRC; cysteine pairing not given here)”?
Answer: cells gated for CCR2+ that were positive for FAM-UNO binding ([1]; 0.5 μg/mL peptide, 30 min, 4 °C): 94%; reduction of binding to peritoneal cells by pre-incubation with anti-CD206 antibody ([1]; anti-CD206 10 μg/mL): 25%; FAM+ cells that are CCR2+ cells (macrophages) ([1]; gated for the FAM+ population, 0.5 μg/mL peptide, 30 min, 4 °C): 94.3% and 95%; fate of the disulfide bridge on incubation with tumor lysate [2]: the disulfide bridge was reduced to yield a linear peptide
